Patent publication US10681909B2, “Herbicidal triazoles” (FMC Corporation, priority 2014, dated 2020)

Legend:
barnyardgrass [1] = test: Test A postemergence; type: in vivo, Echinochloa crus-galli; conditions: 0 to 100 scale (0 no effect, 100 complete control), approx. 10 d
Procedure, shortened: (§1)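 Plant seeds in loam soil blended with sand, then apply test chemical preemergence as a directed soil spray; in parallel, spray potted seedlings (one- to two-leaf, 2 to 10 cm) postemergence. Both treatments use a non-phytotoxic solvent mixture with surfactant.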

corn [2] = test: Test A preemergence; type: in vivo, Zea mays; conditions: 0 to 100 scale (0 no effect, 100 complete control)
Procedure, shortened: as §1

rice = test: Test C flooded paddy test; type: in vivo, Oryza sativa; conditions: Flood, applied to paddy water, rating after 13 to 15 d
Description: (§2) At time of treatment, test pots were flooded to 3 cm above the soil surface, treated by application of test compounds directly to the paddy water, and then maintained at that water depth for the duration of the test. Treated plants and controls were maintained in a greenhouse for 13 to 15 d, after which time all species were compared to controls and visually evaluated. […] A dash (-) response means no test result.

crabgrass, large [3] = test: Test A preemergence; type: in vivo, Digitaria sanguinalis; conditions: 0 to 100 scale (0 no effect, 100 complete control)
Procedure, shortened: as §1

morningglory [4] = test: Test A preemergence; type: in vivo, Ipomoea spp.; conditions: 0 to 100 scale (0 no effect, 100 complete control)
Procedure, shortened: as §1

barnyardgrass [5] = test: Test A preemergence; type: in vivo, Echinochloa crus-galli; conditions: 0 to 100 scale (0 no effect, 100 complete control)
Procedure, shortened: as §1

pigweed [6] = test: Test A preemergence; type: in vivo, Amaranthus retroflexus; conditions: 0 to 100 scale (0 no effect, 100 complete control)
Procedure, shortened: as §1

wheat [7] = test: Test A preemergence; type: in vivo, Triticum aestivum; conditions: 0 to 100 scale (0 no effect, 100 complete control)
Procedure, shortened: as §1

barnyardgrass [8] = test: Test C flooded paddy test; type: in vivo, Echinochloa crus-galli; conditions: Flood, applied to paddy water, rating after 13 to 15 d
Description: as §2

pigweed [9] = test: Test A postemergence; type: in vivo, Amaranthus retroflexus; conditions: 0 to 100 scale (0 no effect, 100 complete control), approx. 10 d
Procedure, shortened: as §1

velvetleaf [10] = test: Test A postemergence; type: in vivo, Abutilon theophrasti; conditions: 0 to 100 scale (0 no effect, 100 complete control), approx. 10 d
Procedure, shortened: as §1

crabgrass, large [11] = test: Test A postemergence; type: in vivo, Digitaria sanguinalis; conditions: 0 to 100 scale (0 no effect, 100 complete control), approx. 10 d
Procedure, shortened: as §1

foxtail, giant [12] = test: Test A postemergence; type: in vivo, Setaria faberii; conditions: 0 to 100 scale (0 no effect, 100 complete control), approx. 10 d
Procedure, shortened: as §1

corn [13] = test: Test A postemergence; type: in vivo, Zea mays; conditions: 0 to 100 scale (0 no effect, 100 complete control), approx. 10 d
Procedure, shortened: as §1

wheat [14] = test: Test A postemergence; type: in vivo, Triticum aestivum; conditions: 0 to 100 scale (0 no effect, 100 complete control), approx. 10 d
Procedure, shortened: as §1

foxtail, giant [15] = test: Test A preemergence; type: in vivo, Setaria faberii; conditions: 0 to 100 scale (0 no effect, 100 complete control)
Procedure, shortened: as §1

morningglory [16] = test: Test A postemergence; type: in vivo, Ipomoea spp.; conditions: 0 to 100 scale (0 no effect, 100 complete control), approx. 10 d
Procedure, shortened: as §1

velvetleaf [17] = test: Test A preemergence; type: in vivo, Abutilon theophrasti; conditions: 0 to 100 scale (0 no effect, 100 complete control)
Procedure, shortened: as §1

ducksalad = test: Test C flooded paddy test; type: in vivo, Heteranthera limosa; conditions: Flood, applied to paddy water, rating after 13 to 15 d
Description: as §2

sedge, umbrella = test: Test C flooded paddy test; type: in vivo, Cyperus difformis; conditions: Flood, applied to paddy water, rating after 13 to 15 d
Description: as §2

SMILES: Cc1nc(-c2ccc(C(F)(F)F)cc2)nn1Cc1cccc(OC(F)(F)F)c1 [Compound 4]
- Plant response rating, Barnyardgrass (barnyardgrass [1]; 125 g ai/ha): 0
- Plant response rating, Barnyardgrass (barnyardgrass [1]; 500 g ai/ha): 10
- Plant response rating, Corn (corn [2]; 125 g ai/ha): 0
- Plant response rating, Corn (corn [2]; 500 g ai/ha, approx. 10 d): 0
- Rice plant response rating (0 to 100) (rice; 31 g ai/ha): 0
- Rice plant response rating (0 to 100) (rice; 62 g ai/ha): 0
- Rice plant response rating (0 to 100) (rice; 125 g ai/ha): 0
- Rice plant response rating (0 to 100) (rice; 250 g ai/ha): 0
- Plant response rating, Crabgrass, Large (crabgrass, large [3]; 125 g ai/ha): 0
- Plant response rating, Crabgrass, Large (crabgrass, large [3]; 500 g ai/ha, approx. 10 d): 0
- Plant response rating, Morningglory (morningglory [4]; 125 g ai/ha): 0
- Plant response rating, Morningglory (morningglory [4]; 500 g ai/ha, approx. 10 d): 0
- Plant response rating, Barnyardgrass (barnyardgrass [5]; 125 g ai/ha): 0
- Plant response rating, Barnyardgrass (barnyardgrass [5]; 500 g ai/ha, approx. 10 d): 0
- Plant response rating, Pigweed (pigweed [6]; 125 g ai/ha): 0
- Plant response rating, Pigweed (pigweed [6]; 500 g ai/ha, approx. 10 d): 0
- Plant response rating, Wheat (wheat [7]; 125 g ai/ha): 0
- Plant response rating, Wheat (wheat [7]; 500 g ai/ha, approx. 10 d): 0
- Barnyardgrass plant response rating (0 to 100) (barnyardgrass [8]; 31 g ai/ha): 0
- Barnyardgrass plant response rating (0 to 100) (barnyardgrass [8]; 62 g ai/ha): 0
- Barnyardgrass plant response rating (0 to 100) (barnyardgrass [8]; 125 g ai/ha): 0
- Barnyardgrass plant response rating (0 to 100) (barnyardgrass [8]; 250 g ai/ha): 0
- Plant response rating, Pigweed (pigweed [9]; 125 g ai/ha): 40
- Plant response rating, Pigweed (pigweed [9]; 500 g ai/ha): 80
- Plant response rating, Velvetleaf (velvetleaf [10]; 125 g ai/ha): 0
- Plant response rating, Velvetleaf (velvetleaf [10]; 500 g ai/ha): 10
- Plant response rating, Crabgrass, Large (crabgrass, large [11]; 125 g ai/ha): 10
- Plant response rating, Crabgrass, Large (crabgrass, large [11]; 500 g ai/ha): 10
- Plant response rating, Foxtail, Giant (foxtail, giant [12]; 125 g ai/ha): 10
- Plant response rating, Foxtail, Giant (foxtail, giant [12]; 500 g ai/ha): 10
- Plant response rating, Corn (corn [13]; 125 g ai/ha): 10
- Plant response rating, Corn (corn [13]; 500 g ai/ha): 10
- Plant response rating, Wheat (wheat [14]; 125 g ai/ha): 0
- Plant response rating, Wheat (wheat [14]; 500 g ai/ha): 0
- Plant response rating, Foxtail, Giant (foxtail, giant [15]; 125 g ai/ha): 0
- Plant response rating, Foxtail, Giant (foxtail, giant [15]; 500 g ai/ha, approx. 10 d): 0
- Plant response rating, Morningglory (morningglory [16]; 125 g ai/ha): 10
- Plant response rating, Morningglory (morningglory [16]; 500 g ai/ha): 60
- Plant response rating, Velvetleaf (velvetleaf [17]; 125 g ai/ha): 0
- Plant response rating, Velvetleaf (velvetleaf [17]; 500 g ai/ha, approx. 10 d): 0
- Ducksalad plant response rating (0 to 100) (ducksalad; 31 g ai/ha): 0
- Ducksalad plant response rating (0 to 100) (ducksalad; 62 g ai/ha): 0
- Ducksalad plant response rating (0 to 100) (ducksalad; 125 g ai/ha): 0
- Ducksalad plant response rating (0 to 100) (ducksalad; 250 g ai/ha): 0
- Sedge, Umbrella plant response rating (0 to 100) (sedge, umbrella; 31 g ai/ha): 0
- Sedge, Umbrella plant response rating (0 to 100) (sedge, umbrella; 62 g ai/ha): 0
- Sedge, Umbrella plant response rating (0 to 100) (sedge, umbrella; 125 g ai/ha): 0
- Sedge, Umbrella plant response rating (0 to 100) (sedge, umbrella; 250 g ai/ha): 0
